# Like-named read-outs stand apart in the source and are kept apart here.
# Key:
# Human Serum Albumin = Human Serum Albumin (Homo sapiens, UniProt P02768); assay: Binding fluorimetric assay (tryptophan quenching); details: fixed concentration of HSA titrated with different amounts of compound
# Protocol: The solutions were mixed and after allowing 30 minutes at room temperature to reach the equilibrium conditions, the spectra were recorded. […] The percentages obtained were plotted against the concentrations used and the KD values were calculated using GraphPad software (version 5.0).
# [1] = system: Alcaligenes faecalis 424/98; assay: Antimicrobial susceptibility testing, MIC by microdilution broth method; assay type: cell-based; details: Mueller-Hinton broth, 18-24 hours at 35-37° C.
# Protocol: (§1) Bacterial strains were obtained from the ATCC or CCUG culture collections or present in the authors' collection of clinical isolates. Compounds were re-suspended in dimethyl sulfoxyde (DMSO) at a final concentration of 10 mg/ml and subsequently diluted in the culture medium. The minimum inhibitory concentrations (MICs) of the compounds of the invention were determined using the microdilution broth method using Mueller-Hinton broth as recommended by the Clinical Laboratory Standards Institute (CLSI [11]). Bacterial inoculum was 5×10^4 CFU/well. MICs were recorded after 18-24 hours incubation at 35-37° C.
# [2] = system: Pseudomonas aeruginosa ATCC 27853; assay: as above; assay type: cell-based; details: 18-24 hours at 35-37° C.
# Protocol: as §1
# [3] = system: Klebsiella pneumoniae ATCC 13833; assay: as above; assay type: cell-based; details: 18-24 hours at 35-37° C.
# Protocol: as §1
# Escherichia coli CCUG^T = assay: as above; assay type: cell-based; details: Mueller-Hinton broth, 18-24 hours at 35-37° C.
# Protocol: as §1
# [4] = system: Staphylococcus aureus ATCC 25923; assay: as above; assay type: cell-based; details: 18-24 hours at 35-37° C.
# Protocol: as §1
# [5] = system: Stenotrophomonas maltophilia 634/08; assay: as above; assay type: cell-based; details: Mueller-Hinton broth, 18-24 hours at 35-37° C.
# Protocol: as §1
# [6] = system: Chryseobacterium meningosepticum CCUG 4310; assay: as above; assay type: cell-based; details: 18-24 hours at 35-37° C.
# Protocol: as §1
# [7] = system: Achromobacter xylosoxidans AX 22; assay: as above; assay type: cell-based; details: 18-24 hours at 35-37° C.
# Protocol: as §1
# Burkholderia cepacia RII = assay: as above; assay type: cell-based; details: Mueller-Hinton broth, 18-24 hours at 35-37° C.
# Protocol: as §1
# [8] = system: Acinetobacter baumannii ATCC 17978; assay: as above; assay type: cell-based; details: 18-24 hours at 35-37° C.
# Protocol: as §1
# [9] = system: Bacillus subtilis ATCC 6633; assay: as above; assay type: cell-based; details: 18-24 hours at 35-37° C.
# Protocol: as §1
# [10] = system: Enterococcus faecalis ATCC 19433; assay: as above; assay type: cell-based; details: 18-24 hours at 35-37° C.
# Protocol: as §1
# [11] = system: Acinetobacter baumannii AC-54/97 (IMP-2); assay: as above; assay type: cell-based; details: Acinetobacter baumannii AC-54/97 (IMP-2), Tables 2 and 3
# Protocol: as §1
# (§2) The Antibacterial activity of compound 28 was also tested on a panel of Gram-negative and Gram-positive clinical isolates, showing various antimicrobial susceptibility profiles (Table 4). The class of drugs for which the isolate was resistant to is indicated in column 2 (PEN, penicillins; ES-CEPH, expanded-spectrum cephalosporins; CARB, carbapenems; AZT; aztreonam; AG, aminoglycosides; FQ, fluoroquinolones; SXT, trimethoprim/sulfamethoxazole; FOS, fosfomycin; GLY, glycopeptides; LNZ, linezolid; COL-R, colistin resistant; COL-S colistin sensitive; PDR, poly-drug resistant).
# [12] = system: Enterobacter cloacae VA-417/02 (VIM-4); assay: as above; assay type: cell-based; details: Enterobacter cloacae VA-417/02 (VIM-4); Tables 2 and 3
# Protocol: as §1, §2
# [13] = system: Klebsiella pneumoniae 081R; assay: as above; assay type: cell-based; details: Tables 2 and 3
# Protocol: as §1, §2
# [14] = system: Gram-positive and Gram-negative organisms; assay: Antimicrobial susceptibility testing, overall statements on the panel; assay type: cell-based; details: overall comparison over the tested strains
# Protocol: as §1
# [15] = ATCC27853, Mueller-Hinton broth, read-out: MIC
# [16] = ATCC13833, Mueller-Hinton broth, read-out: MIC
# [17] = ATCC25923, Mueller-Hinton broth, read-out: MIC
# [18] = Elizabethkingia meningoseptica, CCUG4310, Mueller-Hinton broth, read-out: MIC
# [19] = AX22, Mueller-Hinton broth, read-out: MIC
# [20] = ATCC17978, Mueller-Hinton broth, read-out: MIC
# [21] = ATCC6633, Mueller-Hinton broth, read-out: MIC
# [22] = ATCC19433, Mueller-Hinton broth, read-out: MIC
# Sequence of Human Serum Albumin (P02768 25-609): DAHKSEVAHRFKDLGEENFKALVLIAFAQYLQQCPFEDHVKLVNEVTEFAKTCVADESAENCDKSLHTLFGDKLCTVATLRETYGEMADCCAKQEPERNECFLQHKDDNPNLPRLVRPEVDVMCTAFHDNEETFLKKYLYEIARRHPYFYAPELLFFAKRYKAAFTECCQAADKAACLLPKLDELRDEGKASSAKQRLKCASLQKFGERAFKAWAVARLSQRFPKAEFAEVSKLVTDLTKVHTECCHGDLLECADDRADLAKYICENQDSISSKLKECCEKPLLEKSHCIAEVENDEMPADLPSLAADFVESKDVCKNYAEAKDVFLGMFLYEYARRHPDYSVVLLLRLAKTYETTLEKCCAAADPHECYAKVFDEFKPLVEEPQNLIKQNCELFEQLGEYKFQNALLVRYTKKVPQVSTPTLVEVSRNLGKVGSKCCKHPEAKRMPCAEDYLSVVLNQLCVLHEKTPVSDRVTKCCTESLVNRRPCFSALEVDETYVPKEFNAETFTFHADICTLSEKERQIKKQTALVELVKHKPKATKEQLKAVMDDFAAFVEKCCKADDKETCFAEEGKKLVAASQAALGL
MIC ([1]; read-out: MIC),"MIC [2, 15]","MIC [3, 16]",MIC (Escherichia coli CCUG^T; read-out: MIC),"MIC [4, 17]",MIC ([5]; read-out: MIC),"MIC [6, 18]","MIC [7, 19]",MIC (Burkholderia cepacia RII; read-out: MIC),"MIC [8, 20]","MIC [9, 21]","MIC [10, 22]",Structure (SMILES),MIC [1],MIC ([2]; Mueller-Hinton broth),MIC ([3]; Mueller-Hinton broth),MIC (Escherichia coli CCUG^T),MIC ([4]; Mueller-Hinton broth),MIC [5],MIC ([6]; Mueller-Hinton broth),MIC ([7]; Mueller-Hinton broth),further results
–,–,–,–,–,–,–,–,–,–,–,–,"NC(=O)N1c2ccccc2C=Cc2ccccc21 [CARBAMAZEPINE, Carbamazepine, reference compound]",–,–,–,–,–,–,–,–,intrinsic fluorescence decrease of HSA (Human Serum Albumin): remarkable intrinsic fluorescence decrease
32 µg/mL,> 256 µg/mL,> 256 µg/mL,> 256 µg/mL,4 µg/mL,> 256 µg/mL,> 256 µg/mL,> 256 µg/mL,128 µg/mL,> 256 µg/mL,< 0.125 µg/mL,8 µg/mL,"N=C(N)NCCCCCCCCN(CCCCCCCCNC(=N)NCC1CC1)C(=O)NC(=N)NCCCCCCCCNCCCCCCCCNC(=N)NCC1CC1 [Compound 30, 1-(8-carbamimidamidooctyl)-1-[8-[[N-(cyclopropylmethyl)carbamimidoyl]amino]octyl]-3-[N-[8-[8-[[N-(cyclopropylmethyl)carbamimidoyl]amino]octylamino]octyl]carbamimidoyl]urea]",–,–,–,–,–,–,–,–,"MIC ([11]; Acinetobacter baumannii, read-out: MIC): 32 µg/mL"
> 256 µg/mL,256 µg/mL,32 µg/mL,16 µg/mL,4 µg/mL,> 256 µg/mL,> 256 µg/mL,> 256 µg/mL,> 256 µg/mL,128 µg/mL,4 µg/mL,32 µg/mL,"N=C(N)NCCCCCCN(CCCCCCNC(=N)NCC1CC1)C(=O)N(CCCCCCNC(=N)N)CCCCCCNC(=N)NCC1CC1 [Compound 31, 1,3-bis(6-(3-(cyclopropylmethyl)guanidino)hexyl)-1,3-bis(6-guanidinohexyl)urea]",–,–,–,–,–,–,–,–,–
–,–,–,–,–,–,–,–,–,–,–,–,"N=C(N)NCCCCCCCCN(CCCCCCCCNC(=N)NCC1CC1)C(=O)N(CCCCCCCCNC(=N)NCC1CC1)CCCCCCCCNC(=N)NC(=O)NCCCCCCCCNCCCCCCCCNC(=N)NCC1CC1 [Compound 32, 1,3-bis(8-(3-(cyclopropylmethyl)guanidino)octyl)-1-(8-guanidinooctyl)-3-(8-((3-(8-((8-(3-(cyclopropylmethyl))guanidinooctyl)amino)octyl)carbamoyl)guanidino)octyl)urea]",32 µg/mL,32 µg/mL,8 µg/mL,8 µg/mL,8 µg/mL,64 µg/mL,64 µg/mL,64 µg/mL,MIC (Burkholderia cepacia RII): 128 µg/mL; MIC ([8]; Mueller-Hinton broth): 32 µg/mL; MIC ([9]; Mueller-Hinton broth): 8 µg/mL; MIC ([10]; Mueller-Hinton broth): <0.125 µg/mL; MIC [12]: 16 µg/mL; MIC [13]: 16 µg/mL; MIC [11]: 16 µg/mL; antimicrobial spectrum (in words) [14]: active against both Gram-positive and Gram-negative organisms
–,–,–,–,–,–,–,–,–,–,–,–,"N=C(N)NCCCCCCN(CCCCCCNC(=N)NCC1CC1)C(=O)NC(=N)NCCCCCCNCCCCCCNC(=N)NCC1CC1 [Compound 33, 1-(6-carbamimidamidohexyl)-1-[6-[[N-(cyclopropylmethyl)carbamimidoyl]amino]hexyl]-3-[N-[6-[6-[[N (cyclopropylmethyl)carbamimidoyl]amino]hexylamino]hexyl]carbamimidoyl]urea]",>256 µg/mL,>256 µg/mL,64 µg/mL,32 µg/mL,16 µg/mL,>256 µg/mL,>256 µg/mL,>256 µg/mL,MIC (Burkholderia cepacia RII): >256 µg/mL; MIC ([8]; Mueller-Hinton broth): 256 µg/mL; MIC ([9]; Mueller-Hinton broth): 8 µg/mL; MIC ([10]; Mueller-Hinton broth): 32 µg/mL; MIC [12]: 64 µg/mL; MIC [11]: 8 µg/mL

# Source: patent publication US10004702B2, “Linear guanidine derivatives, methods of preparation and uses thereof” (LEAD DISCOVERY SIENA S.R.L., priority 2014, dated 2018)
